Data published in patent publication US20060173048A1, “Imidazole derivatives” (priority 2005, published 2006).

Legend:
rat mGlu2 receptor = target: T1, rat mGlu2 receptor (Rattus norvegicus, UniProt P31421); assay: [3H]-LY354740 binding on mGlu2 transfected CHO cell membranes; settings: displacement of 10 nM [3H]-LY354740, membranes of CHO cells transfected with rat mGlu2, room temperature, 1 hour
T1 construct: expressed in transfected cells; host or cells: CHO cells, stably transfected (G-418 selection); membranes were prepared from them
T1 sequence (P31421 19-872): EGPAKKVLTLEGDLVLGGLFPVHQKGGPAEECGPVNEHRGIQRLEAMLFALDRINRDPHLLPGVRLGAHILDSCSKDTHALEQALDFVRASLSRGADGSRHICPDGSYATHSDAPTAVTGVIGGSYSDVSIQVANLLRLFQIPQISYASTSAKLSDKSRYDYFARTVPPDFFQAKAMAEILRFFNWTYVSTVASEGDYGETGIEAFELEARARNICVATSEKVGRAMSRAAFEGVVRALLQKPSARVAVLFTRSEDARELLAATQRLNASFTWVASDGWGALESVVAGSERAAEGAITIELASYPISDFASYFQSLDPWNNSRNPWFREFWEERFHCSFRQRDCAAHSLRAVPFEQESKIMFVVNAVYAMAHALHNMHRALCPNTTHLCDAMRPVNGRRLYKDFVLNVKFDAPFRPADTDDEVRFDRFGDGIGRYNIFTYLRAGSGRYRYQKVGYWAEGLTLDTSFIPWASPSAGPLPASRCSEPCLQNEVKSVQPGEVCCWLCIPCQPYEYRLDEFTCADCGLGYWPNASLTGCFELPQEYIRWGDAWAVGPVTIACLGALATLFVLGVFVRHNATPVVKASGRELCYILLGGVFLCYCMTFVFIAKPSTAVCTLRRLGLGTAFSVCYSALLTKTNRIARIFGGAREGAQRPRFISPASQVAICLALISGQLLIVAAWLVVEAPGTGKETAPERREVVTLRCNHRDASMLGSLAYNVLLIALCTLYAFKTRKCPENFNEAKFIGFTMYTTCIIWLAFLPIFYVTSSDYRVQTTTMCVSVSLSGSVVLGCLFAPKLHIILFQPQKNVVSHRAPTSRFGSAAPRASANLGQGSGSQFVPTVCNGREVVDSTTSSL
Excerpt: [^3H]-LY354740 Binding on mGlu2 Transfected CHO Cell Membranes. Transfection and Cell Culture
cDNA encoding the rat mGlu2 receptor protein in pBluescript II was subcloned into the eukaryotic expression vector pcDNA I-amp from Invitrogen Ltd (Paisley, UK). This vector construct (pcD1mGR^2) was co-transfected with a psvNeo plasmid encoding the gene for neomycin resistance, into CHO cells by a modified calcium phosphate method described by Chen & Okayama (1988). The cells were maintained in Dulbecco's Modified Eagle medium with reduced L-glutamine (2 mM final concentration) and 10% dialysed foetal calf serum from Gibco-Invitrogen (Carlsbad, Calif., USA). Selection was made in the presence of G-418 (1000 ug/ml final) and […]. Clones were identified by reverse transcription of 5 μg total RNA, followed by PCR using mGlu2 receptor specific primers 5′-[…]-3′ and 540 -[…]-3′ in 60 mM Tris HCl (pH 10), 15 mM (NH4)2SO4, 2 mM MgCl2, 25 units/ml Taq Polymerase with 30 cycles annealing at 60° C. for 1 min., extention at 72° C. for 30 s, and 1 min. 95° C. denaturation.
Cells, cultured as above, were harvested and washed three times with cold PBS and frozen at −80° C. The pellet was resuspended in cold 20 mM HEPES-NaOH buffer containing 10 mM EDTA (pH 7.4), and homogenised with a polytron (Kinematica, AG, Littau, Switzerland) for 10 s at 10 000 rpm. After centrifugation for 30 min. at 4° C., the pellet was washed once with the same buffer, and once with cold 20 mM HEPES-NaOH buffer containing 0.1 mM EDTA, (pH 7.4). Protein content was measured using the micro BCA method from Pierce-Perbio (Rockford, Ill., USA) using bovine serum albumin as standard.
After thawing, the membranes were resuspended in cold 50 mM Tris-HCl buffer containing 2 mM MgCl2 (pH 7) (binding buffer). The final concentration of the membranes in the assays was 25 μg protein/ml. Inhibition experiments were performed with membranes incubated with 10 nM [^3H]-LY354740 at room temperature, for 1 hour, in presence of various concentrations of the compound to be tested. Following the incubations, membranes were filtered onto Whatmann GF/B glass fiber filters and washed 5 times with cold binding buffer. Non specific binding was measured in the presence of 10 μM DCG IV. After transfer of the filters into plastic vials containing 10 ml of Ultima-gold scintillation fluid from Perkin-Elmer (Boston, Mass., USA), the radioactivity was measured by liquid scintillation in a Tri-Carb 2500 TR counter (Packard, Zürich, Switzerland).
The inhibition curves were fitted with a four parameter logistic equation giving IC50 values, and Hill coefficients.

Structure (SMILES) | Ki (rat mGlu2 receptor) [nM] | melting point [°C]
Cc1cc(C)c(-c2nc(-c3ccncc3)c(-c3ccc(Cl)cc3)n2CCO)c(C)c1 [Example 26, 2-[5-(4-Chloro-phenyl)-4-pyridin-4-yl-2-(2,4,6-trimethyl-phenyl)-imidazol-1-yl]-ethanol] | 63 | –
CCn1c(C(O)(C2CC2)C2CC2)nc(-c2ccncc2)c1-c1ccc(Cl)cc1 [Example 43, [5-(4-Chloro-phenyl)-1-ethyl-4-pyridin-4-yl-1H-imidazol-2-yl]-dicyclopropyl-methanol] | 111 | 185 to 188
CCn1c(-c2c(Cl)cccc2Cl)nc(-c2ccnc(Cl)c2)c1-c1ccc(Cl)cc1 [Example 54, 2-Chloro-4-[5-(4-chloro-phenyl)-2-(2,6-dichloro-phenyl)-1-ethyl-1H-imidazol-4-yl]-pyridine] | – | 187 to 189
CCn1c(-c2c(Cl)cccc2Cl)nc(-c2ccnc(OC)c2)c1-c1ccc(Cl)cc1 [Example 55, 4-[5-(4-Chloro-phenyl)-2-(2,6-dichloro-phenyl)-1-ethyl-1H-imidazol-4-yl]-2-methoxy-pyridine] | – | 138 to 140

Now from value to compound:

Ki (rat mGlu2 receptor) [nM] | melting point [°C] | Structure (SMILES)
7 | 257 to 260 | Cn1c(-c2c(Cl)cccc2Cl)nc(-c2ccncc2)c1-c1ccc(Cl)cc1 [Example 3, 4-[5-(4-Chloro-phenyl)-2-(2,6-dichloro-phenyl)-1-methyl-1H-imidazol-4-yl]-pyridine]
13 | 191 to 193 | CCn1c(-c2c(Cl)cccc2Cl)nc(-c2ccncc2)c1-c1ccc(C)cc1 [Example 11, 4-[2-(2,6-Dichloro-phenyl)-1-ethyl-5-(4-methyl-phenyl)-1H-imidazol-4-yl]-pyridine]
34 | 147 to 149 | C=CCn1c(-c2c(Cl)cccc2Cl)nc(-c2ccncc2)c1-c1ccc(C)cc1 [Example 19, 4-[1-Allyl-2-(2,6-dichloro-phenyl)-5-(4-methyl-phenyl)-1H-imidazol-4-yl]-pyridine]
21 | 210 to 211 | Clc1ccc(-c2c(-c3ccncc3)nc(-c3c(Cl)cccc3Cl)n2C2CC2)cc1 [Example 27, 4-[5-(4-Chloro-phenyl)-1-cyclopropyl-2-(2,6-dichloro-phenyl)-1H-imidazol-4-yl]-pyridine]
49 | 152 to 155 | CCCC(CCC)c1nc(-c2ccncc2)c(-c2ccc(Cl)cc2)n1CC [Example 37, 4-[5-(4-Chloro-phenyl)-1-ethyl-2-(1-propyl-butyl)-1H-imidazol-4-yl]-pyridine]
18 | 221 to 224 | CCn1c(C(O)(C2CCCCC2)C2CCCCC2)nc(-c2ccncc2)c1-c1ccc(Cl)cc1 [Example 47, [5-(4-Chloro-phenyl)-1-ethyl-4-pyridin-4-yl-1H-imidazol-2-yl]-dicyclohexyl-methanol]
